Columns and labels:
Assay in all cases: selective drug sensitivity score (sDSS, relative to normal bone marrow) (sDSS (score)); higher = more potent and effective on the cell line relative to normal bone marrow cells
Conditions in all cases: 72 h
380 = test system: 380
ALL-SIL = test system: ALL-SIL
COG-LL-317 = test system: COG-LL-317
COG-LL-319h = test system: COG-LL-319h
COG-LL-394h = test system: COG-LL-394h
COG-LL-402h = test system: COG-LL-402h
HPB-ALL = test system: HPB-ALL
JURKAT = test system: JURKAT
KASUMI-10 = test system: KASUMI-10
KASUMI-9 = test system: KASUMI-9
MHH-CALL-3 = test system: MHH-CALL-3
MOLT-4 = test system: MOLT-4
NALM-16 = test system: NALM-16
NALM-6 = test system: NALM-6
PEER = test system: PEER
PF-382 = test system: PF-382
RCH-ACV = test system: RCH-ACV
REH = test system: REH
SEM cells = test system: SEM cells
TANOUE = test system: TANOUE
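Also: ALL cell lines in 384-well plates, five doses spanning 10,000-fold, each plate scaled between vehicle and 100 µmol/L benzalkonium chloride controls, sDSS an adapted area-under-curve metric.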

| SMILES | selective drug sensitivity score 380 | selective drug sensitivity score (ALL-SIL) | selective drug sensitivity score (COG-LL-317) | selective drug sensitivity score (COG-LL-319h) | selective drug sensitivity score (COG-LL-394h) | selective drug sensitivity score (COG-LL-402h) | selective drug sensitivity score (HPB-ALL) | selective drug sensitivity score (JURKAT) | selective drug sensitivity score (KASUMI-10) | selective drug sensitivity score (KASUMI-9) | selective drug sensitivity score (MHH-CALL-3) | selective drug sensitivity score (MOLT-4) | selective drug sensitivity score (NALM-16) | selective drug sensitivity score (NALM-6) | selective drug sensitivity score (PEER) | selective drug sensitivity score (PF-382) | selective drug sensitivity score (RCH-ACV) | selective drug sensitivity score (REH) | selective drug sensitivity score (SEM cells) | selective drug sensitivity score (TANOUE) |
| --- | --- | --- | --- | --- | --- | --- | --- | --- | --- | --- | --- | --- | --- | --- | --- | --- | --- | --- | --- | --- |
| Nc1cc(C(F)(F)F)c(-c2cc(N3CCOCC3)nc(N3CCOCC3)n2)cn1 [Buparlisib] (top concentration 10000 nM) | 7.18 | 8.28 | 1.08 | 4.58 | 0.38 | 5.58 | 6.38 | 8.18 | 2.48 | 6.58 | -1.22 | 4.38 | 3.98 | 4.78 | 6.48 | 5.38 | 13.3 | 5.18 | 7.08 | -1.22 |
| Cn1cnc2c(F)c(Nc3ccc(Br)cc3Cl)c(C(=O)NOCCO)cc21 [Selumetinib] (top concentration 10000 nM) | 9.6 | -4.1 | -3.5 | -1.8 | -3 | -2.3 | -4.1 | -3.5 | -3.5 | 2.2 | 15.4 | -3.7 | -1.3 | 5 | -1.6 | -1.8 | -3.7 | -4.1 | -0.3 | -4.1 |
| COC(=O)N[C@@H](C)CNc1nccc(-c2cn(C(C)C)nc2-c2cc(Cl)cc(NS(C)(=O)=O)c2F)n1 [Encorafenib] (top concentration 1000 nM) | 0 | 0 | 0 | 0 | 0.2 | 0 | 1.1 | 1.7 | 0 | 1.4 | 0 | 0 | 0 | 3.5 | 0.9 | 1.5 | 1 | 1.6 | 0.1 | 0 |
| CCS(=O)(=O)N1CCN(c2ccc(Nc3ncc(C(N)=O)c(NC4CC4)n3)cc2)CC1 [Cerdulatinib] (top concentration 10000 nM) | -11.9 | -0.76 | -7.66 | 2.14 | -8.56 | -2.56 | -11.9 | -8.66 | 0.24 | -1.36 | -11.9 | -7.46 | -11.4 | 1.44 | -0.16 | -5.16 | 13.3 | -5.16 | 2.54 | -10.1 |
| Cc1[nH]nc(C(F)(F)F)c1Cc1sc2c(c1C(=O)N1C[C@](C)(O)CO1)c(=O)n(C)c(=O)n2C(C)C [AZD3965] (top concentration 1000 nM) | 4.2 | 0 | 0.3 | 0 | 0 | 0 | 0.1 | 0 | 0 | 2.7 | 0 | 0 | 0 | 11.1 | 0 | 1.7 | 0 | 3.6 | 0 | 2.6 |
| Nc1ncnc2c1c(-c1cccc(OCc3ccccc3)c1)cn2[C@H]1C[C@@H](CN2CCC2)C1 [NVP-AEW541] (top concentration 10000 nM) | 4.48 | 4.58 | -2.32 | 5.08 | 2.48 | -0.72 | 1.58 | -4.72 | 3.58 | -2.72 | -7.62 | -3.22 | -1.42 | -4.02 | 0.38 | -1.52 | 1.18 | 0.88 | 1.38 | -6.02 |
| CC(=O)O[C@]1(C(C)=O)CC[C@H]2[C@@H]3C=C(C)C4=CC(=O)CC[C@]4(C)[C@H]3CC[C@@]21C [Megestrol_acetate] (top concentration 10000 nM) | 7.02 | -0.48 | -0.58 | 0.42 | 1.62 | -0.38 | -0.58 | 1.02 | -0.58 | 3.92 | 4.22 | 0.02 | -0.58 | 1.72 | 0.32 | 0.32 | 4.32 | 0.52 | 3.42 | -0.38 |
| CCN(CCO)CCCOc1ccc2c(Nc3cc(CC(=O)Nc4cccc(F)c4)[nH]n3)ncnc2c1 [AZD1152-HQPA] (top concentration 1000 nM) | 20.8 | 23.4 | 19.8 | 24.2 | 3.24 | 18.4 | 4.34 | -0.26 | 16 | 17.1 | 5.24 | 13.5 | 0.34 | 8.94 | 21.8 | 9.94 | 14 | 17.2 | 15.7 | -3.06 |
| C[C@H]1C=C2C(=O)O[C@H]3CC[C@@H](C1)[C@@]23O [Galiellalactone] (top concentration 25000 nM) | 13 | 5.56 | 7.36 | 7.46 | -0.74 | 3.76 | 5.16 | 1.66 | 4.56 | 6.76 | 11.4 | -0.44 | 6.06 | 5.16 | 1.66 | 4.16 | 7.76 | 3.66 | 3.56 | -0.94 |
| CC(C)[C@H]1C(=O)N[C@@H](CCCNC(=N)N)C(=O)NCC(=O)N[C@@H](CC(=O)O)C(=O)N[C@H](Cc2ccccc2)C(=O)N1C [Cilengitide] (top concentration 10000 nM) | 11.3 | 0 | 0 | 0 | 0 | 0 | 0 | 0 | 0 | 0 | 0 | 0 | 0 | 0 | 0 | 0 | 0 | 0 | 0 | 0 |
| CN[C@@H]1C[C@H]2O[C@@](C)([C@@H]1OC)n1c3ccccc3c3c4c(c5c6ccccc6n2c5c31)C(=O)N[C@H]4O [UCN-01] (top concentration 10000 nM) | 13.5 | 3.14 | 11.8 | 6.64 | -1.46 | 8.94 | 6.04 | 0.34 | 6.94 | 9.34 | 6.24 | 3.74 | 0.74 | 4.94 | -0.66 | 5.44 | 18 | 5.24 | 7.74 | -9.56 |
| CNc1ncc2cc(-c3cc(NC(=O)NCCC(C)(C)C)c(F)cc3C)c(C)nc2n1 (top concentration 10000 nM) | 7.76 | 20.7 | -0.24 | 12.1 | 5.76 | 6.76 | 2.46 | 2.56 | 3.96 | 9.16 | 8.66 | 6.26 | 1.76 | 6.66 | 15 | 9.66 | 12.7 | -2.24 | 5.66 | -2.84 |
| NC1(C(=O)N[C@@H](CCO)c2ccc(Cl)cc2)CCN(c2ncnc3[nH]ccc23)CC1 [AZD-5363] (top concentration 10000 nM) | 8.82 | 3.52 | 8.82 | 4.72 | -1.08 | 5.62 | 1.82 | 6.72 | 1.62 | 3.52 | 6.72 | 7.42 | 0.12 | 7.12 | -0.88 | 4.42 | 10.9 | 11.3 | 4.82 | -2.88 |
| Cc1nc(Nc2n[nH]c3c2CN(C(=O)N[C@H](CN(C)C)c2ccccc2)C3(C)C)c2sccc2n1 (top concentration 10000 nM) | 22.2 | -5.82 | 18.6 | 4.28 | -7.92 | 6.18 | -1.72 | 0.68 | 1.68 | 11.6 | 0.18 | -1.22 | 2.58 | 1.18 | -3.12 | 1.98 | 22.7 | -3.72 | 2.28 | -11.1 |
| CC(C)(C)c1nc(-c2cccc(NS(=O)(=O)c3c(F)cccc3F)c2F)c(-c2ccnc(N)n2)s1 [Dabrafenib] (top concentration 2500 nM) | -1.52 | 3.48 | 0.18 | -0.92 | -0.22 | 0.48 | 2.98 | 1.08 | 0.58 | 3.58 | -1.52 | -1.52 | -1.52 | -0.52 | 3.48 | 0.38 | 0.88 | -1.52 | -1.52 | 0.48 |
| C[C@H]1O[C@@H](O[C@H]2[C@@H](O)C[C@H](O[C@H]3[C@@H](O)C[C@H](O[C@H]4CC[C@@]5(C)[C@H](CC[C@@H]6[C@@H]5C[C@@H](O)[C@]5(C)[C@@H](C7=CC(=O)OC7)CC[C@]65O)C4)O[C@@H]3C)O[C@@H]2C)C[C@H](O)[C@@H]1O [Digoxin] (top concentration 1000 nM) | 22.5 | 5.6 | 8.7 | 10.3 | 4.1 | 6.4 | 5.5 | 10 | 10 | 7.1 | 10.5 | 12.3 | 4.9 | 10.5 | 5.5 | 11.1 | 8.1 | 6.3 | 10 | -2.9 |
| CN[C@@H](C)C(=O)N[C@H](C(=O)N1CCC[C@H]1c1nc(C(=O)c2ccc(F)cc2)cs1)C1CCCCC1 [NVP-LCL161] (top concentration 25000 nM) | -5.02 | 0.08 | -2.02 | -2.32 | 6.58 | -5.42 | -2.62 | -3.82 | -3.52 | -2.72 | -3.22 | -4.32 | -5.82 | -5.82 | -2.72 | -4.12 | -0.52 | 2.38 | -0.22 | -5.82 |

From the supplement of paper PMC8967900
